Measured values reported in patent publication US10782295B2, “Cysteine-reactive ligand discovery in proteomes” (THE SCRIPPS RESEARCH INSTITUTE, priority 2013, dated 2020).

Key:
MMS19 = target: T1, MMS19 (Homo sapiens, UniProt Q96T76); test: competitive isoTOP-ABPP, MDA-MB-231 soluble proteome; assay type: binding; details: 60 min; for R value (isoTOP-ABPP ratio heavy/light) for IA-labeled cysteine of MMS19: 100 μM LDE, peptide LMGLLSDPELGPAAADGFSLLMSDC*TDVLTR
T1 construct: directly in native proteomes; endogenous in cells; host or cells: MDA-MB-231
T1 sequence (Q96T76 1-1030): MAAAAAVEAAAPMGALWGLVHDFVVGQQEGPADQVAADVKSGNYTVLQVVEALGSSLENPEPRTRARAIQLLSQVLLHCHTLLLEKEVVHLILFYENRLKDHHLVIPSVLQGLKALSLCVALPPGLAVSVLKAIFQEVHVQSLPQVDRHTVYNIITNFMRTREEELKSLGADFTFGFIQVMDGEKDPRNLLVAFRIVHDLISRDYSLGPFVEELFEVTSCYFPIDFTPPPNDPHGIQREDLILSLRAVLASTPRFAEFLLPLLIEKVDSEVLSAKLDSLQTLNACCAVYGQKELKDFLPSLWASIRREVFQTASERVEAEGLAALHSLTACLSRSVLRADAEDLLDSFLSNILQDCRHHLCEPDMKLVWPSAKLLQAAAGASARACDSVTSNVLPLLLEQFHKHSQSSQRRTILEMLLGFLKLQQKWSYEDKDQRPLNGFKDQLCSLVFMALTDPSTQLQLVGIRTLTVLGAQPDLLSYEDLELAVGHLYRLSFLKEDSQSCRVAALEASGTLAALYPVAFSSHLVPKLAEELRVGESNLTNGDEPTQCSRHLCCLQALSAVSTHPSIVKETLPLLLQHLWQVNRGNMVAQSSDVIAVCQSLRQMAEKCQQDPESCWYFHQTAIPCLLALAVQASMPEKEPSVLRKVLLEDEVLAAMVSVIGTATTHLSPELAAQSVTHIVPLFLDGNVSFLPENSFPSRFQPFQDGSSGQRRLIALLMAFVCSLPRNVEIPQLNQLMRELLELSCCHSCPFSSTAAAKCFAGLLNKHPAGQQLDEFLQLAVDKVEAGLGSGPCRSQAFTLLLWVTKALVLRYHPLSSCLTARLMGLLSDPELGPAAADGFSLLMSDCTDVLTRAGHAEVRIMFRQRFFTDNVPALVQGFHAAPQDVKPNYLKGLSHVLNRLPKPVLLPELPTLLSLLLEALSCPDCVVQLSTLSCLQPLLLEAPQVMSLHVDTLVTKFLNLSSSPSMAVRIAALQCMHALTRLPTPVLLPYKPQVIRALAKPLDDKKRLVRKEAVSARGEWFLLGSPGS

DYNC1L11 = target: T2, DYNC1L11 (Homo sapiens, UniProt Q9Y6G9); test: as above; assay type: binding; details: 100 μM LDE, 60 min; peptide SEQ ID NO: 25 (...NLWSC*ILSEVSTR)
T2 construct: directly in native proteomes; endogenous in cells; host or cells: MDA-MB-231
T2 sequence (Q9Y6G9 whole entry): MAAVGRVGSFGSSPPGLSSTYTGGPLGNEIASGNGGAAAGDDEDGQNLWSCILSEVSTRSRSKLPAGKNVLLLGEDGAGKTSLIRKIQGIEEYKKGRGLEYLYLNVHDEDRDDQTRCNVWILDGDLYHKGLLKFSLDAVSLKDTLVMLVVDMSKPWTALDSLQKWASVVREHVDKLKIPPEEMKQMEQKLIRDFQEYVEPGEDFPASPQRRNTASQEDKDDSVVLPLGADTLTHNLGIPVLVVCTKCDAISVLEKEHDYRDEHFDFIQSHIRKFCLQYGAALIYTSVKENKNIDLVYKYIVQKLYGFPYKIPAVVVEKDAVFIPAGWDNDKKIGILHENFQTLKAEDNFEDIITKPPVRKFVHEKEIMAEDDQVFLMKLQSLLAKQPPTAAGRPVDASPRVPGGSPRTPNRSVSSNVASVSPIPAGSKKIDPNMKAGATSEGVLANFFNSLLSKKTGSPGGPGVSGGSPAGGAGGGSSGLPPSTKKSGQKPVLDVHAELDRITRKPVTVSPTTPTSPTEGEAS

CCCCCC(O)/C=C/C=O (stereo not shown) [4-HNE, 4-Hydroxynonenal]
R value (isoTOP-ABPP ratio heavy/light) for IA-labeled cysteine of MMS19 (MMS19): 1.78 | R value (isoTOP-ABPP ratio heavy/light) for IA-labeled cysteine of DYNC1L11 (DYNC1L11): 2.59

CCCCCCCCCCCCC/C=C/C=O [2-HD, 2-trans-hexadecenal]
R value (isoTOP-ABPP ratio heavy/light) for IA-labeled cysteine of MMS19 (MMS19): 1.1 | R value (isoTOP-ABPP ratio heavy/light) for IA-labeled cysteine of DYNC1L11 (DYNC1L11): 1.1

CCCCC/C=C/C=C1/C(=O)C=C[C@@H]1C/C=C\CCCC(=O)O [PGJ2, 15-deoxy-Δ12,14-prostaglandin J2]
R value (isoTOP-ABPP ratio heavy/light) for IA-labeled cysteine of MMS19 (MMS19): >15 | blockade of IA-probe labeling of Cys848 of MMS19 (MMS19; 100 μM): completely blocked | R value (isoTOP-ABPP ratio heavy/light) for IA-labeled cysteine of DYNC1L11 (DYNC1L11): 5.18
